Test results from patent publication US8841413B2, “Antidiabetic compounds” (Cadila Healthcare Limited, priority 2006, dated 2014).

Columns and labels:
[1] = test system: RIN5F (Rat Insulinoma) cells; experiment: In vitro glucose-dependent insulin secretion (RIN5F cell assay); type: cell-based; conditions: 16.7 mM glucose load, mean ± S.D., n = 3
human glucagon receptor = molecular target: T1, human glucagon receptor (Homo sapiens, UniProt P47871); experiment: In vitro human glucagon antagonist activity (inhibition of cAMP production), CHO/human glucagon R cells; type: cell-based
T1 construct: The full-length cDNA was cloned in pcDNA3.1(Invitrogen); expressed in transfected cells
T1 sequence (P47871 26-477): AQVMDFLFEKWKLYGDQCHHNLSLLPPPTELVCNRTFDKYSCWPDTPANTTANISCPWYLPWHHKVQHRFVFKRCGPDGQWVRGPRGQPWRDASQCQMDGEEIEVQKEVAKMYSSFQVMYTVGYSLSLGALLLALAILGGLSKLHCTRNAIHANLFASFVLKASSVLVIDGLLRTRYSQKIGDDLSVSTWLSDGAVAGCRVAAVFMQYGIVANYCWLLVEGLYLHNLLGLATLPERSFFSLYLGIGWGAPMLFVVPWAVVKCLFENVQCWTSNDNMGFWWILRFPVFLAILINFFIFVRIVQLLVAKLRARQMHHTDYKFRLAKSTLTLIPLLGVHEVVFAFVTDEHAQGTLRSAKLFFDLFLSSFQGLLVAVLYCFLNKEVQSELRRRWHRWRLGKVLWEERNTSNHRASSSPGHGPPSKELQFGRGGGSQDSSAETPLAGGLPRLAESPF

DPP IV = DPP IV (Homo sapiens, UniProt P27487); experiment: Stability against DPP IV enzyme; type: in vitro ADME; conditions: for % degradation in 24 h when incubated with DPP-IV enzyme: 2 μM, 37° C.; for half-life at 2 μM: DPP IV enzyme, pH 7.8, 37° C., read-out: half-life (t1/2) with DPP-IV enzyme
Chain of DPP IV (P27487 whole entry, species assumed): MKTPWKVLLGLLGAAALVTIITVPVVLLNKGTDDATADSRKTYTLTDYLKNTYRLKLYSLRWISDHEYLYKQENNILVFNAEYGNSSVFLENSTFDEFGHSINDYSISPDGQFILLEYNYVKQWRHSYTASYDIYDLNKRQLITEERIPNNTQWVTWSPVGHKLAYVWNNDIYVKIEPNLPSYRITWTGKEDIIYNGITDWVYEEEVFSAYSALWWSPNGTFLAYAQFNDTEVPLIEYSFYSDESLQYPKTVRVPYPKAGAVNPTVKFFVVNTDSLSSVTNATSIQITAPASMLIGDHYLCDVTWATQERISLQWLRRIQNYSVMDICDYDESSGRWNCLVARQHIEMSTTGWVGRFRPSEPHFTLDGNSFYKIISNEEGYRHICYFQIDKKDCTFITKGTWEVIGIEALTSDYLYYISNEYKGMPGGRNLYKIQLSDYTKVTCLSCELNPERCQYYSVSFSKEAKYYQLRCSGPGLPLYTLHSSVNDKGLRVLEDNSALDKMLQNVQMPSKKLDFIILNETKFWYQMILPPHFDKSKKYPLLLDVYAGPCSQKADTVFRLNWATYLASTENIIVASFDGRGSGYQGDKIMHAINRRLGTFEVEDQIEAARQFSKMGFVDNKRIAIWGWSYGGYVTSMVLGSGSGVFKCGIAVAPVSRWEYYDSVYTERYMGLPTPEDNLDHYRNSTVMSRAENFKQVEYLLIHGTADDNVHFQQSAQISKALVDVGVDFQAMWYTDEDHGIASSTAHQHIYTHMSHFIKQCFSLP
How it was run: (§1)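 Acidic quench (10% v/v TFA/H2O) preceded reversed-phase chromatography monitored at 206 nm, with fractions confirmed by ESI-MS.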

[2] = Stability in human plasma; type: in vitro ADME; conditions: for % degradation in 24 h when incubated with human plasma: 2 μM, 37° C.; for half-life at 2 μM: human, pooled human plasma, pH 7.8, 37° C., read-out: half-life (t1/2) in human plasma
How it was run: as §1

[3] = Stability in simulated gastric fluid; type: in vitro ADME; conditions: 2 μM, 37° C., pH 1.5, pepsin
How it was run: as §1

[4] = Stability in simulated intestinal fluid; type: in vitro ADME; conditions: 2 μM, 37° C., pH 7.5
How it was run: as §1

[5] = Stability against liver microsomes; type: in vitro ADME, human; conditions: for % degradation in 24 h when incubated with liver microsomes: 2 μM, 37° C.; for half-life at 2 μM: human, human liver microsomes, pH 7.8, 37° C., read-out: half-life (t1/2) with liver microsomes
How it was run: as §1

[6] = 1 nM test compound (fourth concentration column, between 100 nM and 10 μM) with saturated concentration of glucagon peptide
[7] = 1 nM test compound with saturated concentration of glucagon peptide
[8] = 10 nM test compound with saturated concentration of glucagon peptide
[9] = 100 nM test compound with saturated concentration of glucagon peptide
[10] = 10 μM test compound with saturated concentration of glucagon peptide

Row | SMILES | Insulin secretion ([1]; 0.1 nM test compd.) [pg/µg/h] | Insulin secretion ([1]; 1 nM test compd.) [pg/µg/h] | Insulin secretion ([1]; 10 nM test compd.) [pg/µg/h] | Human Glucagon receptor antagonistic activity, inhibition of cAMP production of Glucagon peptide (human glucagon receptor; [6]) [pmol/ml/μg prt] | Human Glucagon receptor antagonistic activity, inhibition of cAMP production of Glucagon peptide (human glucagon receptor; [7]) [pmol/ml/μg prt] | Human Glucagon receptor antagonistic activity, inhibition of cAMP production of Glucagon peptide (human glucagon receptor; [8]) [pmol/ml/μg prt] | Human Glucagon receptor antagonistic activity, inhibition of cAMP production of Glucagon peptide (human glucagon receptor; [9]) [pmol/ml/μg prt] | Human Glucagon receptor antagonistic activity, inhibition of cAMP production of Glucagon peptide (human glucagon receptor; [10]) [pmol/ml/μg prt] | % degradation in 24 h when incubated with DPP-IV enzyme (DPP IV) [%] | half-life at 2 μM (DPP IV) [h] | % degradation in 24 h when incubated with human plasma [2] [%] | half-life at 2 μM [2] [h] | % degradation in 24 h when incubated with simulated gastric fluid [3] [%] | half-life (t1/2) in simulated gastric fluid [3] | % degradation in 24 h when incubated with simulated intestinal fluid [4] [%] | half-life (t1/2) in simulated intestinal fluid [4] | % degradation in 24 h when incubated with liver microsomes [5] [%] | half-life at 2 μM [5] [h]
1 | CCc1cc(OC)ccc1-c1ccc(CC(NC(=O)[C@H](CC(=O)O)NC(=O)[C@H](CO)NC(=O)[C@@H](NC(=O)C(C)(Cc2ccccc2F)NC(=O)[C@@H](NC(=O)CNC(=O)[C@H](CCC(N)=O)NC(=O)[C@H](CO)NC(=O)[C@@H](N)Cc2c[nH]cn2)[C@@H](C)O)[C@@H](C)O)C(=O)NC(Cc2ccc(-c3ccccc3C)nc2)C(N)=O)cc1 (single isomer, unassigned) [compound 22] | 12.1 ± 0.42 | 14.6 ± 0.41 | 27.8 ± 0.46 | 18 ± 0.03 | 21 ± 0.11 | 19 ± 0.02 | 18 ± 0.07 | 16 ± 0.02 | 75 | 9 | 77 | 8 | 14 | (8) h | 45 | (6) h | 81 | 1
2 | CCc1cc(OC)ccc1-c1ccc(CC(NC(=O)[C@H](CC(=O)O)NC(=O)[C@H](CO)NC(=O)[C@@H](NC(=O)C(C)(Cc2ccccc2F)NC(=O)[C@@H](NC(=O)CNC(=O)[C@H](CCC(N)=O)NC(=O)[C@H](CO)NC(=O)[C@@H](N)Cc2c[nH]cn2)[C@@H](C)O)[C@@H](C)O)C(=O)NC(Cc2ccc(-c3ccccc3F)cc2)C(N)=O)cc1 (single isomer, unassigned) [compound 23] | 11.9 ± 0.17 | 14.2 ± 0.13 | 27.6 ± 0.16 | 0 | 4 ± 0.05 | 2 ± 0.13 | 2 ± 0.12 | 0 | 77 | 9 | 80 | 8 | 13 | (8) h | 50 | (6) h | 82 | 1
3 | CCc1cc(OC)ccc1-c1ccc(CC(NC(=O)[C@H](CC(=O)O)NC(=O)[C@H](CO)NC(=O)[C@@H](NC(=O)C(C)(Cc2ccccc2F)NC(=O)[C@@H](NC(=O)CNC(=O)[C@H](CCC(N)=O)NC(=O)[C@H](CO)NC(=O)[C@@H](N)Cc2c[nH]cn2)[C@@H](C)O)[C@@H](C)O)C(=O)NC(Cc2ccc(-c3ccccc3C(F)(F)F)cc2)C(N)=O)cc1 (single isomer, unassigned) [compound 24] | 12.3 ± 0.33 | 14.8 ± 0.16 | 28.1 ± 0.22 | 0 | 4 ± 0.09 | 2 ± 0.12 | 0 | 0 | 76 | 9 | 78 | 8 | 14 | (8) h | 43 | (6) h | 80 | 1
4 | CCc1cc(OC)ccc1-c1ccc(CC(NC(=O)[C@H](CC(=O)O)NC(=O)[C@H](CO)NC(=O)[C@@H](NC(=O)C(C)(Cc2ccccc2F)NC(=O)[C@@H](NC(=O)CNC(=O)[C@H](CCC(N)=O)NC(=O)[C@H](C)NC(=O)[C@@H](N)Cc2c[nH]cn2)[C@@H](C)O)[C@@H](C)O)C(=O)NC(Cc2ccc(-c3ccccc3C)cc2)C(N)=O)cc1 (single isomer, unassigned) [compound 25] | 12.4 ± 0.22 | 15.2 ± 0.32 | 29.6 ± 0.50 | 8 ± 0.12 | 18 ± 0.12 | 16 ± 0.11 | 12 ± 0.13 | 6 ± 0.18 | 74 | 9 | 75 | 8 | 12 | (8) h | 46 | (6) h | 83 | 1
5 | CCc1cc(OC)ccc1-c1ccc(CC(NC(=O)[C@H](CC(=O)O)NC(=O)[C@H](CO)NC(=O)[C@@H](NC(=O)C(C)(Cc2ccccc2F)NC(=O)[C@@H](NC(=O)CNC(=O)[C@H](CCC(N)=O)NC(=O)[C@H](C)NC(=O)[C@@H](N)Cc2c[nH]cn2)[C@@H](C)O)[C@@H](C)O)C(=O)NC(Cc2ccc(-c3ccccc3C)nc2)C(N)=O)cc1 (single isomer, unassigned) [compound 26] | 12.1 ± 0.51 | 14.1 ± 0.19 | 28.1 ± 0.29 | 4 ± 0.01 | 15 ± 0.11 | 12 ± 0.13 | 8 ± 0.09 | 2 ± 0.08 | 70 | 9 | 71 | 8 | 14 | (8) h | 40 | (6) h | 78 | 1
